One series relates to healthy PBMCs. Description: Seahorse Mito Stress Test (OCR) of healthy PBMCs after 4-hour in vitro treatment. The format is cell-based, human. The protocol: (§1) PBMC and Monocyte isolation. 30-60 ml of fasting blood was collected into EDTA-containing Vacutainers (BD Mfr #364606). Blood then was diluted (1:1) with RPMI medium (Corning; Cat #17-105-CV) and applied to Histopaque gradient medium (Sigma-Aldrich; Cat #10771) using SepMate-50 (STEMCELL Technologies), and centrifuged at 1200 g for 10 minutes. Top layer contained the enriched peripheral blood mononuclear cells (PBMCs) which were collected and followed by centrifugation at 300 g for 10 minutes. The pellet was resuspended with ACK lysis buffer (Gibco; Cat. A1049201) and incubated at room temperature for 5 minutes to remove residual red blood cells. Next, the enriched PBMCs were washed twice with RPMI medium. All PBMC samples were subjected to the baseline Seahorse Mito Stress Test. When available, the remaining cells were used for cytokine mRNA quantitative PCR and in vitro assays. For monocyte isolation, a magnetic bead-based negative-selection monocyte isolation kit (Miltenyi Biotec, 130-096-537) was used per the manufacturer's instructions. Briefly, antibody-conjugated magnetic bead solution was added to isolated PBMCs resuspended in RPMI containing 0.5% BSA and incubated for 20 minutes at 4° C., followed by magnetic column binding and elution. The procedure was repeated once to improve the purity of monocytes. The monocytes were washed once with RPMI prior to subsequent experiments.
Seahorse Mito Stress Test. Oxygen consumption rate (OCR) of freshly isolated PBMCs was assessed using a Seahorse XFe24 analyzer (Agilent Technologies). Briefly, purified PBMCs were resuspended in Seahorse base medium (Agilent Technologies, supplemented with 1 mM pyruvate, 2 mM glutamine, and 10 mM glucose, pH 7.4), and added 10^6 cells/well at equal volume of 500 μL in a Seahorse 24-well plate. The cells were maintained in a non-CO2 incubator and allowed to settle for 30 minutes at 37° C. Next, the plate was centrifuged at 40 g for 10 minutes at room temperature without application of the brake to help cells attach to the bottom of the plate. Drugs used in the assay: 5 μM oligomycin A (Sigma-Aldrich; Cat. 75351), 3 μM Trifluoromethoxy carbonylcyanide phenylhydrazone (FCCP) (Sigma-Aldrich; Cat. C2920), 1 μM Rotenone (Sigma-Aldrich; Cat. […]), 1 μM Antimycin A (Sigma-Aldrich; Cat. […]), 0.5 mM TMPD (Sigma-Aldrich; Cat. T7394) and 10 mM Ascorbate (Sigma-Aldrich; Cat. 95209).
(§2) PBMC and Monocyte Culture. Freshly isolated PBMCs or Monocytes from healthy or HF subjects were resuspended with RPMI medium plus 10% heat inactivated FBS. PBMCs (10^6 cells/well) were seeded in Seahorse 24-well plates and incubated at 37° C. in CO2 incubator with various proinflammatory triggers (Vehicle, MitoDAMP, LPS) and compounds (NR, MCC 950, MitoTempo, or LMT-28). After 4 hours incubation, the plate was centrifuged at 40 g for 10 minutes at room temperature without application of the brake to help cells attach to the bottom of the plate. The cells were washed twice and then brought up to 500 μL using Seahorse base medium (Agilent Technologies, supplemented with 1 mM pyruvate, 2 mM glutamine, and 10 mM glucose, pH 7.4).

Series [1] deals with PBMCs of heart failure patients. Description: Seahorse OCR of HF PBMCs after 4-hour in vitro NR treatment. The format is cell-based, human. The settings on record: HF PBMC, 4-hour 1 mM NR vs vehicle. The protocol:
as §1, with “Briefly, antibody-conjugated magnetic bead solution was added to isolated PBMCs resuspended in RPMI containing 0.5% BSA and incubated for 20 minutes at 4° C., followed by magnetic column binding and elution. The procedure was repeated once to improve the purity of monocytes. The monocytes were washed once with RPMI prior to subsequent experiments.” left out
Seahorse Mito Stress Test. Oxygen consumption rate (OCR) of freshly isolated PBMCs was assessed using a Seahorse XFe24 analyzer (Agilent Technologies). […]

Series [2] deals with NLRP3 and pro-inflammatory cytokine (IL1β, IL6, IL18, TNFα) mRNA in healthy PBMCs. Description: RT-qPCR of NLRP3 and pro-inflammatory cytokine mRNA in healthy PBMCs treated in vitro. The format is cell-based, human. The protocol:
as §2
IL6 ELISA. Isolated PBMCs (4×10^6 cells per sample) from healthy or HF participants were resuspended in RPMI medium containing 10% heat-inactivated FBS and treated with various proinflammatory triggers (Vehicle, MitoDAMP, LPS) and compounds (NR, MCC 950, MitoTempo, or LMT-28) to final PBMC concentrations of 10×10^6 cells per mL. See below for detailed descriptions of the reagents. The samples were incubated in Eppendorf tubes at 37° C. in a 5% CO2 incubator with caps open for times designated in the brief description of drawings. The cultured PBMC samples were centrifuged at 8,000 RPM at room temperature. The supernatant was used for ELISA per the manufacture protocol using R&D Systems human IL6 kit (Cat #DY206-05). The cell pellets were stored in −80° C.
RNA Isolation and Quantitative PCR analysis. Total RNA was isolated from frozen PBMC pellets using Trizol (Invitrogen) per the manufacturer's instructions, and cDNA was synthesized using iScript™ Reverse Transcription Supermix (Bio-rad) per the manufacturer's instructions. Real-time PCR was performed in the Corbett rotor gene 6000 real-time PCR machine using iQ™ SYBR® Green Supermix (Bio-rad) and expression levels of the indicated genes were calculated using the ΔΔCt method.

Series [3] has as its system NLRP3 and proinflammatory cytokine gene expressions in HF PBMCs. In words: RT-qPCR of NLRP3 and cytokine mRNA in Stage D HF PBMCs treated in vitro with NR. The format is cell-based, human. As to conditions: 4-hour 1 mM NR vs vehicle. The protocol: as §2
IL6 ELISA. Isolated PBMCs (4×10^6 cells per sample) from healthy or HF participants were resuspended in RPMI medium containing 10% heat-inactivated FBS and treated with various proinflammatory triggers (Vehicle, MitoDAMP, LPS) and compounds (NR, MCC 950, MitoTempo, or LMT-28) to final PBMC concentrations of 10×10^6 cells per mL. See below for detailed descriptions of the reagents. […]
RNA Isolation and Quantitative PCR analysis. […] Real-time PCR was performed in the Corbett rotor gene 6000 real-time PCR machine using iQ™ SYBR® Green Supermix (Bio-rad) and expression levels of the indicated genes were calculated using the ΔΔCt method.
In general terms: Quantitative PCR measures a nucleic acid by following its amplification.

The nature of series [4]: Adverse effects of oral NR in Stage D HF patients. Type of series: in vivo, human. As to conditions: oral NR 5-9 days, 5 participants. The protocol: For experiments associated with the oral NR administration (FIGS. 12C-12F), 5 hospitalized Stage D HF patients undergoing advanced heart failure therapy evaluations were put on escalating doses of NR (250 mg twice a day for Day 1, 500 mg twice a day for Day 2, and 1000 mg twice a day from Day 3 on) for 5-9 days. Fasting blood samples were obtained for PBMC isolation at baseline and post-NR administration. Subject 5 was withdrawn due to a change in clinical course deemed to be independent from NR administration.

The mark [5] stands for this setting: healthy PBMC, 4-hour 1 mM NR vs vehicle, absence of MitoDAMP.

SMILES strings stand for the structures.

Turning to `NC(=O)c1ccc[n+]([C@@H]2O[C@H](CO)[C@@H](O)[C@H]2O)c1` [NR, nicotinamide riboside], the “basal OCR” value (in the series with healthy PBMCs (setting [5]); in series [1]) was “increased” throughout. In addition, the “maximal OCR” value with healthy PBMCs (setting [5]) is given as “increased”; with healthy PBMCs (healthy PBMCs, 4-hour 10 ng/mL LPS with 1 mM NR) it was “enhancing”; in series [1], “increased”. The “MitoDAMP-induced decline of maximal OCR” value in the series on healthy PBMCs (healthy PBMC, 4-hour MitoDAMP with 1 mM NR) is on record as “partially prevented”. Besides, the “proinflammatory cytokine gene expressions” value is listed as “reducing” in series [2] (4-hour 10 ng/mL LPS with 1 mM NR relative to LPS alone) and “reduction” in series [2] (4-hour MitoDAMP with 1 mM NR relative to MitoDAMP only). For the same compound, the “reductions of NLRP3 and proinflammatory cytokine gene expressions” value in series [3] is “minimal”. For the same compound, in series [4], the “adverse effect associated with NR” value is given as “No adverse effect”.

Source of the values: US20230263817A1, “HIGH DOSE NICOTINAMIDE ADENINE DINUCLEOTIDE (NAD) PRECURSOR REGIMENS FOR REDUCTION OF INFLAMMATION IN HUMAN PATIENTS WITH PREEXISTING INFLAMMATION” (University of Washington, priority 2021, published 2023).
